According to patent US8471005B2 (Cephalon, Inc., priority 2008, dated 2013):
pIC50: −log10 of the molar value. Where two headings read alike, the source gives them in different places.

Legend:
ALK = biological target: T1, ALK (Homo sapiens, UniProt Q9UM73); assay: ALK Kinase Assay (ELISA/TRF, PLC-γ substrate); type: biochemical; conditions: read-out: ALK Potency
T1 construct: host or cells: baculovirus expression system
Outline: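 PLC-γ coat 10 μg/mL in TBS; ALK 30 ng/ml added to start; 37° C, 15 min; Eu-N1 PT66 antibody detection (TRF). IC50: % inhibition vs log10 [cpd], variable-slope sigmoidal fit.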

JAK2 = biological target: T2, JAK2 (Homo sapiens, UniProt O60674); assay: Recombinant Human JAK2 Kinase Assay (TRF); type: biochemical; conditions: read-out: JAK2 Potency
T2 construct: host or cells: baculovirus expression system
T2 sequence (O60674 whole entry): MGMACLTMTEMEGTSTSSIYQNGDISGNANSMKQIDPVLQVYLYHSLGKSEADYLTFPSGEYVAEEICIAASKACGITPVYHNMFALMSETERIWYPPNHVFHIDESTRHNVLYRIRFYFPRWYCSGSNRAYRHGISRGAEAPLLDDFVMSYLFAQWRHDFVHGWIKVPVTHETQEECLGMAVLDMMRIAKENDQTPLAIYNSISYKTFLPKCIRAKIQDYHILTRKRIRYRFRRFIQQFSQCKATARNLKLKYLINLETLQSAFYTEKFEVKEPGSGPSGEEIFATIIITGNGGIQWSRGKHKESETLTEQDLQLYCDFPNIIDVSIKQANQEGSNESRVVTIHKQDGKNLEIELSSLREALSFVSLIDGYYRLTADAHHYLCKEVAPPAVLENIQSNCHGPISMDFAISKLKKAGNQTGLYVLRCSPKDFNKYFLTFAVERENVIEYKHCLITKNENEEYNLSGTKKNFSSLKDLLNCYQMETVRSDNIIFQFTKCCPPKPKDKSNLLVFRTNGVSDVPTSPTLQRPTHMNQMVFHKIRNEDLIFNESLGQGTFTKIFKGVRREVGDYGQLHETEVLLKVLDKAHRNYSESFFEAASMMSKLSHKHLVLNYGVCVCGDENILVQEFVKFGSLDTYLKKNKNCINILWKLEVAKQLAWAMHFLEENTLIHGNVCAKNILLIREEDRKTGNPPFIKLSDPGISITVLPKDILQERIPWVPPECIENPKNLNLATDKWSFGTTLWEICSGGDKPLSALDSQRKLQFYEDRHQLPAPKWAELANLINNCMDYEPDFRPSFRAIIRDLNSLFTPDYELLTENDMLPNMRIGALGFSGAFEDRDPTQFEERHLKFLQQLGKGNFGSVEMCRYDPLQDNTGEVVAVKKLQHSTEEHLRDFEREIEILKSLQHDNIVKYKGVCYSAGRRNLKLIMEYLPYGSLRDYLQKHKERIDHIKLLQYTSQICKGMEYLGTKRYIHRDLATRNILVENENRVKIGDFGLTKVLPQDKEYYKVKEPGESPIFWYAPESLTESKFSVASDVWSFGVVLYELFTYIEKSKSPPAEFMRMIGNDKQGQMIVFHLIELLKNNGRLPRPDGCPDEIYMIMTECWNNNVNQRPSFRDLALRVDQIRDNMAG
Outline: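 Europium-labelled PY100 antibody reported tyrosine phosphorylation of a Neutravidin-captured biotinyl 15-mer peptide by JAK2 (baculovirus-expressed, 15 ng/ml). Conditions: 20 mM HEPES pH 7.2, 0.2 μM ATP, 1 mM MnCl2, 0.1% BSA, DMSO 2.5% final, 20 min at room temperature.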

[1] = ALK kinase inhibition, 1 μM ATP
[2] = JAK2 kinase inhibition, 0.2 μM ATP

T1 sequence (Q9UM73 19-1620): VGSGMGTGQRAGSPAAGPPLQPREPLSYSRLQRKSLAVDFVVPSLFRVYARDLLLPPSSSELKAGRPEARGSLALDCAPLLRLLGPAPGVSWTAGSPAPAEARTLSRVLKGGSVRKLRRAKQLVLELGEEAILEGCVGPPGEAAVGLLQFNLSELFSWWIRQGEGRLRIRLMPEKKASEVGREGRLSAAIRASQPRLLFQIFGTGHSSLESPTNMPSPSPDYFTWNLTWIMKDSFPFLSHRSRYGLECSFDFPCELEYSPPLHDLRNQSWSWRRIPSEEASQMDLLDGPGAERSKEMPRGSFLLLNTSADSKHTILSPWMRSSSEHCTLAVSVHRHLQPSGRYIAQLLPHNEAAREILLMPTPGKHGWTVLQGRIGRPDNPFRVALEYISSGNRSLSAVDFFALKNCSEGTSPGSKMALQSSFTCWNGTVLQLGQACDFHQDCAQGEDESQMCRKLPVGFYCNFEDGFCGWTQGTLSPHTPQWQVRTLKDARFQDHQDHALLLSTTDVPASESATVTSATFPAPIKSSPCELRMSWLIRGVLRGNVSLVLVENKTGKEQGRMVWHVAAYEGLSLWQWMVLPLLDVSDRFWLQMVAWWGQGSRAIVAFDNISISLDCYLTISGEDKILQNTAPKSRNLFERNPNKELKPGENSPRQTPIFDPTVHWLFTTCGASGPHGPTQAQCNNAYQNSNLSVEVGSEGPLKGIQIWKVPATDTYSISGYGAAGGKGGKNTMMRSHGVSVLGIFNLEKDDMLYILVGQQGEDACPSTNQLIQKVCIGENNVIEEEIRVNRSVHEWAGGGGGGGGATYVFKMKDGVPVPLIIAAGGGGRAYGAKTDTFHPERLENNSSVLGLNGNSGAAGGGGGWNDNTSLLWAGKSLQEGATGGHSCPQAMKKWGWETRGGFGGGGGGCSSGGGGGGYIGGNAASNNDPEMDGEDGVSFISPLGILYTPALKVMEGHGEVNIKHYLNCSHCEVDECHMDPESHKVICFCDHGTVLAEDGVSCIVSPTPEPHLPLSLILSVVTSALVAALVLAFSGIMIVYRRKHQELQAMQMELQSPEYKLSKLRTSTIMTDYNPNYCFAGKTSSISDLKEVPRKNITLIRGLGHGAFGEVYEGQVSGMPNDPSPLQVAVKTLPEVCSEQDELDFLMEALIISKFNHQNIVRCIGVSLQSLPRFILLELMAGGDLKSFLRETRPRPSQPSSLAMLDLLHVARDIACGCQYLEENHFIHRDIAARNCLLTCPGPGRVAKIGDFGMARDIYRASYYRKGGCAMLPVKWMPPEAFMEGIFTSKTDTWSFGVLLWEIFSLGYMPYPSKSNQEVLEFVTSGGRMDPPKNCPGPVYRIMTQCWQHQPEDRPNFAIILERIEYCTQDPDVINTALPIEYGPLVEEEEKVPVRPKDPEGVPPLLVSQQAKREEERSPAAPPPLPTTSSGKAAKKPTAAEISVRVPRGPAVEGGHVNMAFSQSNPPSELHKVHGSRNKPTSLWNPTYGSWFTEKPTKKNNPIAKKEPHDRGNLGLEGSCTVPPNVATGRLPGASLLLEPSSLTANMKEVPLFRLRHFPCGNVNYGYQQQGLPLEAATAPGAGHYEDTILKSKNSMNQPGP

SMILES | pIC50 (ALK; [1]) | pIC50 (JAK2; [2]) | pIC50 (ALK; ALK Kinase Inhibition) | pIC50 (JAK2; JAK2 Kinase Inhibition)
COc1cc(N2CCN(C[C@H](C)O)CC2)ccc1Nc1ncc2ccc(-c3ccccc3S(C)(=O)=O)n2n1 [Example 541, (S)-1-(4-{4-[7-(2-Methanesulfonyl-phenyl)-pyrrolo[2,1-f][1,2,4]triazin-2-ylamino]-3-methoxy-phenyl}-piperazin-1-yl)-propan-2-ol] | 6.00 to 7.00 | 5.00 to 6.00 |  | 
COc1cccc(-c2ccc3cnc(Nc4ccc(N5CCOCC5)cc4)nn23)c1 [Example 422, [7-(3-Methoxy-phenyl)-pyrrolo[2,1-f][1,2,4]triazin-2-yl]-(4-morpholin-4-yl-phenyl)-amine] |  |  | < 5.00 | > 7.00
CC(C)(O)CN1CCN(c2cccc(Nc3ncc4ccc(-c5cccc(Cl)c5)n4n3)c2)CC1 [Example 220, 1-(4-{3-[7-(3-Chloro-phenyl)-pyrrolo[2,1-f][1,2,4]triazin-2-ylamino]-phenyl}-piperazin-1-yl)-2-methyl-propan-2-ol] |  |  | 6.00 to 7.00 | > 7.00
CN1CCN(C(=O)C2CCN(c3ccc(Nc4ncc5ccc(-c6ccc(Cl)cc6O)n5n4)cc3)CC2)CC1 [Example 485, (1-{4-[7-(4-Chloro-2-hydroxy-phenyl)-pyrrolo[2,1-f][1,2,4]triazin-2-ylamino]-phenyl}-piperidin-4-yl)-(4-methyl-piperazin-1-yl)-methanone] | 6.00 to 7.00 | > 7.00 |  | 
O=C(NCCN1CCCC1)c1ccc(-c2ccc3cnc(Nc4ccc(N5CCOCC5)cc4)nn23)cc1 [Example 53, 4-[2-(4-Morpholin-4-yl-phenylamino)-pyrrolo[2,1-f][1,2,4]triazin-7-yl]-N-(2-pyrrolidin-1-yl-ethyl)-benzamide] |  |  | 6.00 to 7.00 | > 7.00
COc1cc(C2CCCN(C)C2)ccc1Nc1ncc2ccc(-c3ccccc3OC)n2n1 (stereo not shown) [Example 805, [2-Methoxy-4-(1-methyl-piperidin-3-yl)-phenyl]-[7-(2-methoxy-phenyl)-pyrrolo[2,1-f][1,2,4]triazin-2-yl]-amine] | > 7.00 | 6.00 to 7.00 |  | 
COc1ccc(-c2ccc3cnc(Nc4ccc(N5CCN(C)CC5)cc4)nn23)cc1 [Example 421, [7-(4-Methoxy-phenyl)-pyrrolo[2,1-f][1,2,4]triazin-2-yl]-[4-(4-methyl-piperazin-1-yl)-phenyl]-amine] |  |  | 6.00 to 7.00 | > 7.00
CCN1CCCC(CC)(c2ccc(Nc3ncc4ccc(-c5ccccc5N(C)S(C)(=O)=O)n4n3)cc2)C1 (racemic) [Example 778, (±)-N-(2-{2-[4-(1,3-Diethyl-piperidin-3-yl)-phenylamino]-pyrrolo[2,1-f][1,2,4]triazin-7-yl}-phenyl)-N-methyl-methanesulfonamide] | > 7.00 | > 7.00 |  | 
c1cc(N2CCOCC2)ccc1Nc1ncc2ccc(-c3ccc4c(c3)OCCO4)n2n1 [Example 5, [7-(2,3-Dihydro-benzo[1,4]dioxin-6-yl)-pyrrolo[2,1-f][1,2,4]triazin-2-yl]-(4-morpholin-4-yl-phenyl)-amine] |  |  | 5.00 to 6.00 | > 7.00
Clc1cccc(-c2ccc3cnc(Nc4ccc(N5CCCCC5)cc4)nn23)c1 [Example 49, [7-(3-Chloro-phenyl)-pyrrolo[2,1-f][1,2,4]triazin-2-yl]-(4-piperidin-1-yl-phenyl)-amine] |  |  | < 5.00 | > 7.00
COc1ccccc1-c1ccc2cnc(Nc3ccc4c(c3)C(=O)CC3(CCN(C)CC3)O4)nn12 [Example 376] |  |  | 6.00 to 7.00 | > 7.00
OCC1CCN(c2ccc(Nc3ncc4ccc(-c5cccnc5)n4n3)cc2)CC1 [Example 116, {1-[4-(7-Pyridin-3-yl-pyrrolo[2,1-f][1,2,4]triazin-2-ylamino)-phenyl]-piperidin-4-yl}-methanol] |  |  | 5.00 to 6.00 | > 7.00

Other lines, results leading:

pIC50 (ALK; [1]) | pIC50 (JAK2; [2]) | pIC50 (ALK; ALK Kinase Inhibition) | pIC50 (JAK2; JAK2 Kinase Inhibition) | SMILES
 |  | 6.00 to 7.00 | > 7.00 | CN1CCN(Cc2nc3cc(Nc4ncc5ccc(-c6cccc(S(C)(=O)=O)c6)n5n4)ccc3[nH]2)CC1 [Example 1538, [7-(3-Methanesulfonyl-phenyl)-pyrrolo[2,1-f][1,2,4]triazin-2-yl]-[2-(4-methyl-piperazin-1-ylmethyl)-1H-benzimidazol-5-yl]-amine]
 |  | 6.00 to 7.00 | > 7.00 | NC(=O)CN1CCC(c2ccc(Nc3ncc4ccc(-c5cccc(N6CCCS6(=O)=O)c5)n4n3)cc2)CC1 [Example 1512, 2-{4-[4-({7-[3-(1,1-Dioxido-1,2-thiazolidin-2-yl)phenyl]pyrrolo[2,1-f][1,2,4]triazin-2-yl}amino)phenyl]piperidin-1-yl}acetamide]
6.00 to 7.00 | > 7.00 |  |  | COc1ccccc1-c1ccc2cnc(Nc3ccc4c(c3)NC(=O)CC4)nn12 [Example 981, 7-[7-(2-Methoxy-phenyl)-pyrrolo[2,1-f][1,2,4]triazin-2-ylamino]-3,4-dihydro-1H-quinolin-2-one]
5.00 to 6.00 | 6.00 to 7.00 |  |  | CN(C)Cc1ccccc1-c1ccc2cnc(Nc3ccc(N4CCOCC4)cc3)nn12 [Example 1035, [7-(2-Dimethylaminomethyl-phenyl)-pyrrolo[2,1-f][1,2,4]triazin-2-yl]-(4-morpholin-4-yl-phenyl)-amine]
> 7.00 | > 7.00 |  |  | N#CCCc1cccc(-c2ccc3cnc(Nc4ccc5c(c4)CCC(N4CCOCC4)CC5)nn23)c1 (stereo not shown) [Example 1148, 3-{3-[2-(7-Morpholin-4-yl-6,7,8,9-tetrahydro-5H-benzocyclohepten-2-ylamino)-pyrrolo[2,1-f][1,2,4]triazin-7-yl]-phenyl}-propionitrile]
> 7.00 | 6.00 to 7.00 |  |  | COc1cc([C@]2(C#N)CC[C@H](N3CCOCC3)CC2)ccc1Nc1ncc2ccc(-c3ccccc3N(C)S(C)(=O)=O)n2n1 [Example 1245, N-{2-[2-({4-[trans-1-cyano-4-(morpholin-4-yl)cyclohexyl]-2-methoxyphenyl}amino)pyrrolo[2,1-f][1,2,4]triazin-7-yl]phenyl}-N-methylmethanesulfonamide]
6.00 to 7.00 | > 7.00 |  |  | COc1ccccc1-c1ccc2cnc(Nc3ccc(Cl)c(OCC4CCCN4C)c3)nn12 (stereo not shown) [Example 1011, [4-Chloro-3-(1-methyl-pyrrolidin-2-ylmethoxy)-phenyl]-[7-(2-methoxy-phenyl)-pyrrolo[2,1-f][1,2,4]triazin-2-yl]-amine]
6.00 to 7.00 | < 5.00 |  |  | COc1ccc(N(C)S(C)(=O)=O)c(-c2ccc3cnc(Nc4ccc(C5CCN(CC(N)=O)CC5)cc4OC)nn23)c1 [Example 1283, 2-[4-(4-{7-[2-(Methanesulfonyl-methyl-amino)-5-methoxy-phenyl]-pyrrolo[2,1-f][1,2,4]triazin-2-ylamino}-3-methoxy-phenyl)-piperidin-1-yl]-acetamide]
5.00 to 6.00 | 5.00 to 6.00 |  |  | COc1cc2c(cc1Nc1ncc3ccc(-c4ccccc4OC)n3n1)CN(C(=O)OC(C)(C)C)C2 [Example 874, 5-Methoxy-6-[7-(2-methoxy-phenyl)-pyrrolo[2,1-f][1,2,4]triazin-2-ylamino]-1,3-dihydro-isoindole-2-carboxylic acid tert-butyl ester]
6.00 to 7.00 | > 7.00 |  |  | CN1CCN(c2cccc(Nc3ncc4ccc(-c5cnn(CC(N)=O)c5)n4n3)c2)CC1 [Example 978, 2-(4-{2-[3-(4-Methyl-piperazin-1-yl)-phenylamino]-pyrrolo[2,1-f][1,2,4]triazin-7-yl}-pyrazol-1-yl)-acetamide]
 |  | 5.00 to 6.00 | > 7.00 | CC(C)(C)NS(=O)(=O)c1cccc(-c2ccc3cnc(Nc4cccc(N5CCCC5=O)c4)nn23)c1 [Example 1383, N-tert-Butyl-3-{2-[3-(2-oxo-pyrrolidin-1-yl)-phenylamino]-pyrrolo[2,1-f][1,2,4]triazin-7-yl}-benzenesulfonamide]
5.00 to 6.00 | > 7.00 |  |  | CS(=O)(=O)c1cccc(-c2ccc3cnc(Nc4ccc(CN5CCS(=O)(=O)CC5)cc4)nn23)c1 [Example 1049, [4-(1,1-Dioxo-1$1(6)-thiomorpholin-4-ylmethyl)-phenyl]-[7-(3-methanesulfonyl-phenyl)-pyrrolo[2,1-f][1,2,4]triazin-2-yl]-amine]
6.00 to 7.00 | > 7.00 |  |  | CN1CCN(c2ccc(Nc3ncc4ccc(-c5cccc(C(=O)OC(C)(C)C)c5)n4n3)cc2)CC1 [Example 1143, 3-{2-[4-(4-Methyl-piperazin-1-yl)-phenylamino]-pyrrolo[2,1-f][1,2,4]triazin-7-yl}-benzoic acid tert-butyl ester]
> 7.00 | > 7.00 |  |  | CN1CCC(c2ccc(Nc3ncc4ccc(-c5ccc(S(C)(=O)=O)cc5)n4n3)cc2)CC1 [Example 1119, [7-(4-Methanesulfonyl-phenyl)-pyrrolo[2,1-f][1,2,4]triazin-2-yl]-[4-(1-methyl-piperidin-4-yl)-phenyl]-amine]
> 7.00 | 6.00 to 7.00 |  |  | COc1cc([C@H]2CC[C@H](N3CCOCC3)CC2)ccc1Nc1ncc2ccc(-c3ccccc3N(C)S(C)(=O)=O)n2n1 [Example 1248, N-{2-[2-({2-methoxy-4-[trans-4-(morpholin-4-yl)cyclohexyl]phenyl}amino)pyrrolo[2,1-f][1,2,4]triazin-7-yl]phenyl}-N-methylmethanesulfonamide]
 |  | 6.00 to 7.00 | > 7.00 | COc1ccccc1-c1ccc2cnc(Nc3ccc4nc(CN5CCN(C)CC5)[nH]c4c3)nn12 [Example 1526, [7-(2-Methoxy-phenyl)-pyrrolo[2,1-f][1,2,4]triazin-2-yl]-[2-(4-methyl-piperazin-1-ylmethyl)-3H-benzimidazol-5-yl]-amine]
5.00 to 6.00 | > 7.00 |  |  | COc1ccccc1-c1ccc2cnc(Nc3ccc4cn(CCN5CCOCC5)nc4c3)nn12 [Example 1350, [7-(2-Methoxy-phenyl)-pyrrolo[2,1-f][1,2,4]triazin-2-yl]-[2-(2-morpholin-4-yl-ethyl)-2H-indazol-6-yl]-amine]
